In US20260109707A1, “HETEROBIFUNCTIONAL COMPOUNDS AND METHODS OF TREATING DISEASE” (Halda Therapeutics OpCo. Inc., priority 2022, published 2026):
Where two headings read alike, the source gives them in different places.

Legend:
[1] = test system: VCaP cells; experiment: Cellular growth inhibition assay for VCaP cells (CellTiter-Glo, 72 hours); type: cell-based, human
In short: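 Luminescent viability signal after 72 h of compound exposure gave GI50 values by four-parameter nonlinear regression. Compounds were added in 0.5% DMSO to cells plated 24 h earlier at 5000/well in DMEM containing 10% FBS.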

[2] = test system: T47D cells; experiment: Cellular growth inhibition assay for T47D cells (CellTiter-Glo, 72 hours); type: cell-based, human; conditions: 72 hours treatment
In short: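 Cells are plated at 3000/well and allowed 24 h before treatment. Test compound in medium containing 0.5% DMSO is then added, with DMSO-only wells as negative control, and plates are incubated 72 h at 37 °C. ATP luminescence (CellTiter-Glo 2.0) is then fitted to four parameters to derive GI50.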

[3] = Cellular growth inhibition assay, T-Rex 293 SC cells with doxycycline (CellTiter-Glo, 72 hours); type: cell-based; conditions: T-Rex 293 SC cells with doxycycline (increased progesterone receptor isoform B)
Protocol: (§1) The following types of cells were prepared for this experiment: (i) a T-Rex 293 cell line having increased expression of progesterone receptor isoform B protein due to exposure to doxycycline and (ii) a T-Rex 293 cell line lacking increased expression of progesterone receptor isoform B protein. Ability of the test compounds to inhibit proliferation of the foregoing cell types was evaluated according to the procedures set forth below.
(§2) The doxycycline-inducible progesterone receptor isoform B protein expressing cell line was established using the following protocol: T-Rex 293 cells were purchased from Invitrogen (Cat #R71007) and transfected using Lipofectamine 2000 with the wild-type progesterone receptor B protein sequence cloned into the pcDNA4/TO vector. Transfected cells were selected using 400 μg/mL Zeocin (Invitrogen Cat #R25001). Following selection, single clones were raised and maintained in Dulbecco's Modified Eagle Medium (DMEM) supplemented with 10% w/w Tetracycline-free fetal bovine serum (FBS) and 250 μg/mL Zeocin. Clones were analyzed for expression of progesterone receptor isoform B protein in the presence and absence of 10 ng/mL doxycycline (Sigma Cat #D9891), and a single doxycycline-inducible clone (hereinafter “SC”) was selected for use in downstream assays.
(§3) The SC cells were seeded on poly-D-lysine coated, black clear-bottom 384-well plates at 2500/well, in 25 μL Phenol Red Free Dulbecco's Modified Eagle Medium (DMEM) supplemented with 10% w/w charcoal-dextran treated fetal bovine serum (FBS) and 1% w/w pen-strep, with or without 10 ng/mL doxycycline. Pen-Strep is a commercially available mixture of penicillin G and streptomycin, which is used in mammalian cell culture media to prevent bacterial contamination. Phenol Red Free Dulbecco's Modified Eagle Medium (DMEM) supplemented with 10% w/w charcoal-dextran treated fetal bovine serum (FBS) and 1% w/w pen-strep, with or without 10 ng/mL doxycycline is herein referred to as Treatment Medium. Following seeding of cells in the plates, the plates were spun at 300×g for 30 seconds, then equilibrated to room temperature for 30 minutes, and then deposited in a humidified tissue culture incubator maintained at 37° C. with 5% CO2.
(§4) At 24 hours after seeding of the cells, dilutions of test compound were prepared in DMSO and dissolved in Treatment Medium, to achieve a final DMSO concentration of 0.5% w/w, thereby providing the Test Compound Solution. A 25 μL aliquot of the Test Compound Solution was added to cells in the well plates. An equal volume of a solution containing DMSO and Treatment Medium was used as a negative control. Following treatment of cells with Test Compound Solution or said equal volume of a solution containing DMSO and Treatment Medium, the plates were spun at 300×g for 30 seconds, and then left in an incubator for 72 hours.
(§5) At the end of the treatment duration, cell viability was quantified with CellTiter-Glo 2.0 reagent (Promega Cat #G9243). For this purpose, plates were equilibrated to room temperature for 30 minutes, and then 25 μL of CellTiter-Glo 2.0 reagent was added to cells in the plate wells. Plates were then agitated on a shaker for two minutes at 500 rpm and subsequently incubated at room temperature for 10 minutes. Following incubation, the plates were spun at 3000×g for 30 seconds, then sealed with an optical adhesive cover, and luminescence readings were measured with an EnVision Plate Reader (Perkin Elmer).
(§6) Data was normalized using zero luminescence for baseline. A four-parameter non-linear regression curve fit was applied to dose-response data in GraphPad Prism data analysis software to determine the half-maximal growth inhibitory concentration (GI50) for each test compound.

[4] = test system: T-Rex 293 cell line SC3 cells having increased expression of androgen receptor protein due to exposure to doxycycline; experiment: Cellular growth inhibition assay, T-Rex 293 SC3 cells with doxycycline (CellTiter-Glo, 72 hours); type: cell-based; conditions: T-Rex 293 SC3 cells with increased androgen receptor expression due to doxycycline (10 ng/mL)
In short: (§7)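 Growth inhibition is measured in an inducible AR-expressing T-Rex 293 clone, SC3, cultured with or without 10 ng/mL doxycycline in hormone-depleted medium. Test compounds are applied for 72 hours. GI50 values derive from CellTiter-Glo 2.0 signal fitted by four-parameter regression.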

[5] = test system: T-Rex 293 cell line SC cells lacking increased expression of progesterone receptor isoform B protein; experiment: Cellular growth inhibition assay, T-Rex 293 SC cells without doxycycline (CellTiter-Glo, 72 hours); type: cell-based; conditions: T-Rex 293 SC cells not exposed to doxycycline
Protocol: as §1, §2, §3, §4, §5, §6

[6] = test system: T-Rex 293 cell line SC3 cells lacking increased expression of androgen receptor protein; experiment: Cellular growth inhibition assay, T-Rex 293 SC3 cells without doxycycline (CellTiter-Glo, 72 hours); type: cell-based; conditions: T-Rex 293 cell line SC3 cells not exposed to doxycycline (lacking increased androgen receptor expression)
In short: as §7

Compound	GI50 ([1]; Homo sapiens, VCaP, 72 h) [nM]	GI50 ([2]; Homo sapiens, T47D, 72 h) [nM]	GI50 [3] [nM]	GI50 ([4]; 72 h) [nM]	GI50 [5] [nM]	GI50 ([6]; 72 h) [nM]	GI50 [1] [nM]	GI50 [2] [nM]	GI50 [4] [nM]	GI50 [6] [nM]
CCNC(=O)C[C@@H]1N=C(c2ccc(OCCC3CCN(c4ccc(C(=O)N[C@H]5CC[C@H](Oc6ccc(C#N)c(Cl)c6)CC5)nn4)CC3)cc2)c2c(sc(C)c2C)-n2c(C)nnc21 [I-13]	< 500	< 500	< 500	< 500	< 500	< 500				
CCNC(=O)C[C@@H]1N=C(c2ccc(OCCN3CCN(c4ccc(C(=O)N[C@H]5CC[C@H](Oc6ccc(C#N)c(Cl)c6)CC5)nn4)CC3)cc2)c2c(sc(C)c2C)-n2c(C)nnc21 [I-25]	< 500	< 500	< 500	< 500	500 to 1500	500 to 1500				
CCNC(=O)C[C@@H]1N=C(c2ccc(OC3CCN(c4ccc(C(=O)N[C@H]5CC[C@H](Oc6ccc(C#N)c(Cl)c6)CC5)nn4)CC3)cc2)c2c(sc(C)c2C)-n2c(C)nnc21 [I-26]	< 500	< 500	< 500	< 500	< 500	500 to 1500				
CCNC(=O)C[C@@H]1N=C(c2ccc(N3CCN(CC4CCN(c5ccc(C(=O)N[C@H]6CC[C@H](Oc7ccc(C#N)c(Cl)c7)CC6)nn5)CC4)CC3)cc2)c2c(sc(C)c2C)-n2c(C)nnc21 [I-28]	< 500	< 500	< 500	< 500	< 500	500 to 1500				
CCNC(=O)C[C@@H]1N=C(c2ccc(C3CCC(OC4CCN(c5ccc(C(=O)N[C@H]6CC[C@H](Oc7ccc(C#N)c(Cl)c7)CC6)nn5)CC4)C3)cc2)c2c(sc(C)c2C)-n2c(C)nnc21 (some centres unmarked) [I-67]	< 500	< 500	< 500	< 500	< 500	< 500				
Cc1sc2c(c1C)C(c1ccc(CCN3CCCN(c4ccc(C(=O)N[C@H]5CC[C@H](Oc6ccc(C#N)c(Cl)c6)CC5)nn4)CC3)cc1)=N[C@@H](Cc1ncco1)c1nnc(C)n1-2 [I-128]	< 500	< 500	< 500	< 500	< 500	< 500				
Cc1sc2c(c1C)C(c1ccc(CCCN3[C@H](C)CN(c4ccc(C(=O)N[C@H]5CC[C@H](Oc6ccc(C#N)c(Cl)c6)CC5)nn4)C[C@@H]3C)cc1)=N[C@@H](Cc1ncco1)c1nnc(C)n1-2 [I-129]	< 500	< 500	< 500	< 500	< 500	< 500				
Cc1sc2c(c1C)C(c1ccc(CCCN3[C@@H](C)CN(c4ccc(C(=O)N[C@H]5CC[C@H](Oc6ccc(C#N)c(Cl)c6)CC5)nn4)C[C@@H]3C)cc1)=N[C@@H](Cc1ncco1)c1nnc(C)n1-2 [I-130]	< 500	< 500	< 500	< 500	< 500	< 500				
Cc1sc2c(c1C)C(c1ccc(OC3CC4(C3)CC3(CCN(c5ccc(C(=O)N[C@H]6CC[C@H](Oc7ccc(C#N)c(Cl)c7)CC6)nn5)CC3)C4)cc1)=N[C@@H](C)c1nnc(C)n1-2 [I-435]	< 500	> 3000		< 500		> 3000				
Cc1sc2c(c1C)C(c1ccc(OC3CC4(C3)CC3(CCN(c5ccc(C(=O)N[C@H]6CC[C@H](Oc7ccc(C#N)c(Cl)c7)CC6)nn5)CC3)C4)nc1)=N[C@@H](C)c1nnc(C)n1-2 [I-436]	< 500	500 to 1500		< 500		> 3000				
Cc1sc2c(c1C)C(c1ccc(C3CC(N4CCN(c5ccc(C(=O)N[C@H]6CC[C@H](Oc7ccc(C#N)c(Cl)c7)CC6)nn5)CC4)C3)cc1)=N[C@@H](Cc1ncco1)c1nnc(C)n1-2 (some centres unmarked) [I-437]	< 500	< 500		< 500		< 500				
Cc1sc2c(c1C)C(c1ccc(CCC3CC4(CCCC(c5ccc(C(=O)N[C@H]6CC[C@H](Oc7ccc(C#N)c(Cl)c7)CC6)nn5)C4)C3)nc1)=N[C@@H](Cc1ncco1)c1nnc(C)n1-2 (some centres unmarked) [I-438]	< 500	500 to 1500		< 500		< 500				
Cc1sc2c(c1C)C(c1ccc(CCC3CC4(CCCC(c5ccc(C(=O)N[C@H]6CC[C@H](Oc7ccc(C#N)c(Cl)c7)CC6)nn5)C4)C3)nc1)=N[C@@H](Cc1ncco1)c1nnc(C)n1-2 (some centres unmarked) [I-439]							500 to 1500	500 to 1500	< 500	< 500
Cc1sc2c(c1C)C(c1ccc(C(C)(C)CN3CC4(CCCN(c5ccc(C(=O)N[C@H]6CC[C@H](Oc7ccc(C#N)c(Cl)c7)CC6)nn5)C4)C3)cc1)=N[C@@H](Cc1ncco1)c1nnc(C)n1-2 [I-440]	< 500	500 to 1500		< 500		500 to 1500				
Cc1sc2c(c1C)C(c1ccc(COC3(C)CC4(CN(c5ccc(C(=O)N[C@H]6CC[C@H](Oc7ccc(C#N)c(Cl)c7)CC6)nn5)C4)C3)cc1)=N[C@@H](Cc1ncco1)c1nnc(C)n1-2 [I-441]	< 500	< 500		< 500		< 500				
Cc1sc2c(c1C)C(c1ccc(-c3coc(C4CCN(c5ccc(C(=O)N[C@H]6CC[C@H](Oc7ccc(C#N)c(Cl)c7)CC6)nn5)CC4)n3)cc1)=NC(Cc1ncco1)c1nnc(C)n1-2 (some centres unmarked) [I-442]							< 500	< 500	< 500	< 500
